tested on: Acinetobacter baumannii (ATCC 19606); assay: Anti-bacterial activity assay; type: cell-based; details: ATCC19606, 50 µM
In short: (§1)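 Compounds tested once at 50 µM in duplicate against mid-log cultures at 5 × 10^5 CFU/mL, incubated 18 h at 37 °C without shaking. Growth read by absorbance at 600 nm; percentage inhibition calculated relative to bacteria-only wells. Vancomycin (Gram-positive) and colistin (Gram-negative) served as plate controls.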

First: COc1ccc(Nc2cc(C)nc(N3CCN(C(=O)Nc4cccc(OC)c4)CC3)n2)cc1 [SN00793512, COc1ccc(cc1)Nc1cc(C)nc(n1)N1CCN(CC1)C(=O)Nc1cccc(OC)c1]
Second: COc1ccc(NC(=O)c2ccc(-c3cc(NC4CCCCC4)ncn3)cc2)cc1 [SN00794765, COc1ccc(cc1)NC(=O)c1ccc(cc1)c1ncnc(NC2CCCCC2)c1]
The inhibition at 50 µM of the first is higher: 16.8% for the first, -0.4% for the second.

tested on: Klebsiella pneumoniae (ATCC 700603); assay: Anti-bacterial activity assay; type: cell-based; details: ATCC700603, 50 µM, read-out: Bacterial Inhibition K. pneumoniae
In short: as §1

Going from `COc1ccc(Nc2cc(C)nc(N3CCN(C(=O)Nc4cccc(OC)c4)CC3)n2)cc1` [SN00793512, COc1ccc(cc1)Nc1cc(C)nc(n1)N1CCN(CC1)C(=O)Nc1cccc(OC)c1] to `COc1ccc(NC(=O)c2ccc(-c3cc(NC4CCCCC4)ncn3)cc2)cc1` [SN00794765, COc1ccc(cc1)NC(=O)c1ccc(cc1)c1ncnc(NC2CCCCC2)c1], the inhibition at 50 µM falls from 4.81% to 1.61%.

tested on: methicillin resistant Staphylococcus aureus (ATCC 43300); assay: Anti-bacterial activity assay; type: cell-based; details: Staphylococcus aureus, ATCC43300, 50 µM; read-out: Bacterial Inhibition S. aureus
In short: as §1

Going from `COc1ccc(Nc2cc(C)nc(N3CCN(C(=O)Nc4cccc(OC)c4)CC3)n2)cc1` [SN00793512, COc1ccc(cc1)Nc1cc(C)nc(n1)N1CCN(CC1)C(=O)Nc1cccc(OC)c1] to `COc1ccc(NC(=O)c2ccc(-c3cc(NC4CCCCC4)ncn3)cc2)cc1` [SN00794765, COc1ccc(cc1)NC(=O)c1ccc(cc1)c1ncnc(NC2CCCCC2)c1], the inhibition at 50 µM falls from 6.36% to 2.05%.

tested on: Escherichia coli (ATCC 25922); assay: Anti-bacterial activity assay; type: cell-based; details: Escherichia coli, ATCC25922, 50 µM; read-out: Bacterial Inhibition E. coli
In short: as §1

First: COc1ccc(Nc2cc(C)nc(N3CCN(C(=O)Nc4cccc(OC)c4)CC3)n2)cc1 [SN00793512, COc1ccc(cc1)Nc1cc(C)nc(n1)N1CCN(CC1)C(=O)Nc1cccc(OC)c1]
Second: COc1ccc(NC(=O)c2ccc(-c3cc(NC4CCCCC4)ncn3)cc2)cc1 [SN00794765, COc1ccc(cc1)NC(=O)c1ccc(cc1)c1ncnc(NC2CCCCC2)c1]
The inhibition at 50 µM of the first is higher: 3.7% for the first, 3.31% for the second.

tested on: Neonatal foreskin fibroblast (NFF) cells; assay: Mammalian cell cytotoxicity assay (sulforhodamine B); type: cell-based, human; details: Homo sapiens, NFF; 20 µM; ±SD
In short: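 Cytotoxicity against neonatal foreskin fibroblasts was read by sulforhodamine B staining, with media-only, untreated, DMSO-vehicle and chloroquine controls. Dose–response started at 100 µM. Selectivity index = NFF IC50 divided by G. duodenalis BRIS/91/HEPU/1279 IC50.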

Compared with `COc1ccc(Nc2cc(C)nc(N3CCN(C(=O)Nc4cccc(OC)c4)CC3)n2)cc1` [SN00793512, COc1ccc(cc1)Nc1cc(C)nc(n1)N1CCN(CC1)C(=O)Nc1cccc(OC)c1], `COc1ccc(NC(=O)c2ccc(-c3cc(NC4CCCCC4)ncn3)cc2)cc1` [SN00794765, COc1ccc(cc1)NC(=O)c1ccc(cc1)c1ncnc(NC2CCCCC2)c1] is lower in inhibition at 20 µM: 35.2 ± 2.5% for the first, 23.1 ± 8.6% for the second.

same assay, conditions: Table S2; NFF vs 48 h Giardia IC50

For `COc1ccc(Nc2cc(C)nc(N3CCN(C(=O)Nc4cccc(OC)c4)CC3)n2)cc1` [SN00793512, COc1ccc(cc1)Nc1cc(C)nc(n1)N1CCN(CC1)C(=O)Nc1cccc(OC)c1], the “SI (48h Gd)” value was greater than 2.

tested on: G. duodenalis BRIS/91/HEPU/1279; assay: Primary Giardia screen at 10 µM (live-cell imaging, automated counting); type: cell-based, Giardia duodenalis; details: Giardia duodenalis, 24 h, first singlicate assay, read-out: % Inhibition n=1 24h
In short: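 Compounds were tested once each at 10 μM final (0.2% DMSO) in culture medium under 3% O2, 5% CO2 in N2. Growth was read at 24 and 48 h by live-cell imaging with automated counting, and inhibition expressed as percent growth versus 0.2% DMSO vehicle after media-only background subtraction.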

Going from `COc1ccc(Nc2cc(C)nc(N3CCN(C(=O)Nc4cccc(OC)c4)CC3)n2)cc1` [SN00793512, COc1ccc(cc1)Nc1cc(C)nc(n1)N1CCN(CC1)C(=O)Nc1cccc(OC)c1] to `COc1ccc(NC(=O)c2ccc(-c3cc(NC4CCCCC4)ncn3)cc2)cc1` [SN00794765, COc1ccc(cc1)NC(=O)c1ccc(cc1)c1ncnc(NC2CCCCC2)c1], the inhibition at 10 µM falls from 50.6% to 29.5%.

same assay, conditions: Giardia duodenalis, 24 h, re-assessment, read-out: % Inhibition n=2 24h

Going from `COc1ccc(Nc2cc(C)nc(N3CCN(C(=O)Nc4cccc(OC)c4)CC3)n2)cc1` [SN00793512, COc1ccc(cc1)Nc1cc(C)nc(n1)N1CCN(CC1)C(=O)Nc1cccc(OC)c1] to `COc1ccc(NC(=O)c2ccc(-c3cc(NC4CCCCC4)ncn3)cc2)cc1` [SN00794765, COc1ccc(cc1)NC(=O)c1ccc(cc1)c1ncnc(NC2CCCCC2)c1], the inhibition at 10 µM falls from 48.1% to 4.7%.

same assay, conditions: Giardia duodenalis, 24 h, read-out: Average % Inhibition 24h

Compared with `COc1ccc(Nc2cc(C)nc(N3CCN(C(=O)Nc4cccc(OC)c4)CC3)n2)cc1` [SN00793512, COc1ccc(cc1)Nc1cc(C)nc(n1)N1CCN(CC1)C(=O)Nc1cccc(OC)c1], `COc1ccc(NC(=O)c2ccc(-c3cc(NC4CCCCC4)ncn3)cc2)cc1` [SN00794765, COc1ccc(cc1)NC(=O)c1ccc(cc1)c1ncnc(NC2CCCCC2)c1] is lower in inhibition at 10 µM: 49.3% for the first, 17.1% for the second.

same assay, conditions: Giardia duodenalis, 48 h, first singlicate assay, read-out: % Inhibition n=1 48h

Going from `COc1ccc(Nc2cc(C)nc(N3CCN(C(=O)Nc4cccc(OC)c4)CC3)n2)cc1` [SN00793512, COc1ccc(cc1)Nc1cc(C)nc(n1)N1CCN(CC1)C(=O)Nc1cccc(OC)c1] to `COc1ccc(NC(=O)c2ccc(-c3cc(NC4CCCCC4)ncn3)cc2)cc1` [SN00794765, COc1ccc(cc1)NC(=O)c1ccc(cc1)c1ncnc(NC2CCCCC2)c1], the inhibition at 10 µM falls from 88.7% to 63.5%.

same assay, conditions: Giardia duodenalis, 48 h, re-assessment, read-out: % Inhibition n=2 48h

First: COc1ccc(Nc2cc(C)nc(N3CCN(C(=O)Nc4cccc(OC)c4)CC3)n2)cc1 [SN00793512, COc1ccc(cc1)Nc1cc(C)nc(n1)N1CCN(CC1)C(=O)Nc1cccc(OC)c1]
Second: COc1ccc(NC(=O)c2ccc(-c3cc(NC4CCCCC4)ncn3)cc2)cc1 [SN00794765, COc1ccc(cc1)NC(=O)c1ccc(cc1)c1ncnc(NC2CCCCC2)c1]
The inhibition at 10 µM of the first is higher: 84.5% for the first, 38.6% for the second.

same assay, conditions: Giardia duodenalis, 48 h, read-out: Average % Inhibition 48h

First: COc1ccc(Nc2cc(C)nc(N3CCN(C(=O)Nc4cccc(OC)c4)CC3)n2)cc1 [SN00793512, COc1ccc(cc1)Nc1cc(C)nc(n1)N1CCN(CC1)C(=O)Nc1cccc(OC)c1]
Second: COc1ccc(NC(=O)c2ccc(-c3cc(NC4CCCCC4)ncn3)cc2)cc1 [SN00794765, COc1ccc(cc1)NC(=O)c1ccc(cc1)c1ncnc(NC2CCCCC2)c1]
The inhibition at 10 µM of the first is higher: 86.6% for the first, 51% for the second.

tested on: G. duodenalis BRIS/91/HEPU/1279; assay: Giardia dose response assay, assemblage B; type: cell-based, Giardia duodenalis; details: Giardia duodenalis, 24 h, read-out: G. duodenalis IC50 24h, Table S2; 24 h; ±SD; max 10 µM
In short: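 Assemblage B trophozoites (BRIS/91/HEPU/1279, 1.5 × 10^4 parasites/well) faced 8–12-point doubling dilutions in duplicate, incubated 48 h at 37 °C under 3% O2, 5% CO2 in N2. Parasites were imaged and counted at 24 and 48 h. Growth inhibition was taken versus vehicle controls minus background, with IC50 by log-linear interpolation.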

First: COc1ccc(Nc2cc(C)nc(N3CCN(C(=O)Nc4cccc(OC)c4)CC3)n2)cc1 [SN00793512, COc1ccc(cc1)Nc1cc(C)nc(n1)N1CCN(CC1)C(=O)Nc1cccc(OC)c1]
Second: COc1ccc(NC(=O)c2ccc(-c3cc(NC4CCCCC4)ncn3)cc2)cc1 [SN00794765, COc1ccc(cc1)NC(=O)c1ccc(cc1)c1ncnc(NC2CCCCC2)c1]
The IC50 of the first is lower: 8.74 µM for the first, greater than 10 µM for the second.

same assay, conditions: Giardia duodenalis, 48 h, Table S2; 48 h; ±SD; max 10 µM; read-out: G. duodenalis IC50 48h

Compared with `COc1ccc(Nc2cc(C)nc(N3CCN(C(=O)Nc4cccc(OC)c4)CC3)n2)cc1` [SN00793512, COc1ccc(cc1)Nc1cc(C)nc(n1)N1CCN(CC1)C(=O)Nc1cccc(OC)c1], `COc1ccc(NC(=O)c2ccc(-c3cc(NC4CCCCC4)ncn3)cc2)cc1` [SN00794765, COc1ccc(cc1)NC(=O)c1ccc(cc1)c1ncnc(NC2CCCCC2)c1] is higher in IC50: 8.63 ± 1.91 µM for the first, greater than 10 µM for the second. The first is the more potent here.

From paper PMC9775191, “A Subset Screen of the Compounds Australia Scaffold Library Identifies 7-Acylaminodibenzoxazepinones as Potent and Selective Hits for Anti-Giardia Drug Discovery” (Biomedicines, 2022)
